Test results as given in US20250236611A1, “PYRAZOLE COMPOUNDS AND USES THEREOF” (ALCON INC., priority 2021, published 2025).

How the values were obtained:
Assay type in all cases: biochemical
Settings in all cases: 10 nM JAK enzyme, 800 nM Abl peptide, room temperature 75 min
[1] = target: JAK1 (Homo sapiens, UniProt P23458); assay: JAK assay (KINASE-GLO luminescent kinase assay), JAK1
How it was run: (§1)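 The 2× mix gave 10 nM kinase, 800 nM Abl peptide and 2 µM DTT, and ATP was added as a 4× stock (2 µM), in HEPES pH 7.5 buffer. Compounds ran as an 11-point series, 100 µM–10 pM final in 2.5% DMSO, for 75 min at RT. Remaining ATP was read by luminescence against DMSO control, and 4-parameter IC50s were converted to Ki by Cheng-Prusoff.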

[2] = target: T1, JAK3 (Homo sapiens, UniProt P52333); assay: JAK assay (KINASE-GLO luminescent kinase assay), JAK3
T1 sequence (P52333 1-1124): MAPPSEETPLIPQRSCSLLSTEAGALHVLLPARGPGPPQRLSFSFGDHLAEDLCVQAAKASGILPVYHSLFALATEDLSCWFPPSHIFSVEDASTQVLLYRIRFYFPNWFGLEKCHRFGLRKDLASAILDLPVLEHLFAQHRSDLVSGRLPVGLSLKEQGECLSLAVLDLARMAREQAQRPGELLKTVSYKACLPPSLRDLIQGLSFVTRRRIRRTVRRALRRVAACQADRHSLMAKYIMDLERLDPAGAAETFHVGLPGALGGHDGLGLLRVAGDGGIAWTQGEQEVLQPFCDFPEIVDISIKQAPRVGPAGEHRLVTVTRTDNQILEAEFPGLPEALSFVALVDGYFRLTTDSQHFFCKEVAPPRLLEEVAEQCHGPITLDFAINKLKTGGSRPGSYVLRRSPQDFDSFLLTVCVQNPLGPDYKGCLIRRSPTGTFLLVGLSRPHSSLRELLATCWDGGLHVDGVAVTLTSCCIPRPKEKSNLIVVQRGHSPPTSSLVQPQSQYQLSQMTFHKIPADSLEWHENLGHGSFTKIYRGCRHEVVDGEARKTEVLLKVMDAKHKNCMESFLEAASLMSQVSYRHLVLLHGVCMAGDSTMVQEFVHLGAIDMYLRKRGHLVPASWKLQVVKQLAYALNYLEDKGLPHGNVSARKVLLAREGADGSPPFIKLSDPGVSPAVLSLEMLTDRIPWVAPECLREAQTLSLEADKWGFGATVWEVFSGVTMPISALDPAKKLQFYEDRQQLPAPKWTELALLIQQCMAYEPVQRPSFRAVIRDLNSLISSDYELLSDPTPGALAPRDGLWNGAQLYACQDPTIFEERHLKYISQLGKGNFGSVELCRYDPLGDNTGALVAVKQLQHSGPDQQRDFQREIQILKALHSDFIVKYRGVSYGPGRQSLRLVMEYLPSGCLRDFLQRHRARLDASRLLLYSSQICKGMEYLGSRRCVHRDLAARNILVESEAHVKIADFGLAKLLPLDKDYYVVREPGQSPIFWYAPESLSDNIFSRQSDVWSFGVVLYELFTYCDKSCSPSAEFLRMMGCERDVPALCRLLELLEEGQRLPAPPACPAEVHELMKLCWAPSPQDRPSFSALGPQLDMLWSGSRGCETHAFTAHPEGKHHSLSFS
How it was run: as §1

[3] = target: JAK2 (Homo sapiens, UniProt O60674); assay: JAK assay (KINASE-GLO luminescent kinase assay), JAK2
Sequence of JAK2 (O60674 whole entry): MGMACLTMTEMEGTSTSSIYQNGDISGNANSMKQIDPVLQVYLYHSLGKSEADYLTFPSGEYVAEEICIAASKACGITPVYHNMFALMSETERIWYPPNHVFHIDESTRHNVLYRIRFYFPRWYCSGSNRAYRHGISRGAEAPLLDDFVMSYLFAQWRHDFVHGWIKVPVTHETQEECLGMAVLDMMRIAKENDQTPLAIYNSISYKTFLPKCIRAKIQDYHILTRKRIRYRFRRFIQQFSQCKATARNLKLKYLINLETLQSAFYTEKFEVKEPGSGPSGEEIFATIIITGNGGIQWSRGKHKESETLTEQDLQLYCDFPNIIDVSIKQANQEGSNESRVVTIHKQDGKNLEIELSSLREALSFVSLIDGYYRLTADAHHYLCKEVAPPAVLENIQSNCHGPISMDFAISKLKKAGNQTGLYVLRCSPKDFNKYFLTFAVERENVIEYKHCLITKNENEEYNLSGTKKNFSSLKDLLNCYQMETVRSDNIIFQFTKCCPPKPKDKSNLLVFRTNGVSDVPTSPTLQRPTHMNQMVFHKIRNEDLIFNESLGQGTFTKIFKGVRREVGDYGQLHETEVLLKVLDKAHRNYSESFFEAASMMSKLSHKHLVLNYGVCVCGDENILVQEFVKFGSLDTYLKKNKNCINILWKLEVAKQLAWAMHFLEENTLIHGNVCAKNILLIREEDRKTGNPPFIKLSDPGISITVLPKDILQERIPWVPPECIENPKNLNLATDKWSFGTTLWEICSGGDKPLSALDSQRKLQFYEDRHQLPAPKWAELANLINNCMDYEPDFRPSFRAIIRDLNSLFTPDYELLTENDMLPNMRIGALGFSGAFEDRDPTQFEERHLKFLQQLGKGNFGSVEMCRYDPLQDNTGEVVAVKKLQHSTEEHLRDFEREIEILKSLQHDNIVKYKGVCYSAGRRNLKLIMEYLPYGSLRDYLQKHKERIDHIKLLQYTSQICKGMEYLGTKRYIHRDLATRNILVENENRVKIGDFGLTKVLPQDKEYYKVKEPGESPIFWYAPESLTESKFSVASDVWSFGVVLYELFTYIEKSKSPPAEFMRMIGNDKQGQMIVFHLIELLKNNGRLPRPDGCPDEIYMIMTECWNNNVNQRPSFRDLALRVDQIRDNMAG
How it was run: as §1

[4] = target: TYK2 (Homo sapiens, UniProt P29597); assay: JAK assay (KINASE-GLO luminescent kinase assay), TYK2
Sequence of TYK2 (P29597 whole entry): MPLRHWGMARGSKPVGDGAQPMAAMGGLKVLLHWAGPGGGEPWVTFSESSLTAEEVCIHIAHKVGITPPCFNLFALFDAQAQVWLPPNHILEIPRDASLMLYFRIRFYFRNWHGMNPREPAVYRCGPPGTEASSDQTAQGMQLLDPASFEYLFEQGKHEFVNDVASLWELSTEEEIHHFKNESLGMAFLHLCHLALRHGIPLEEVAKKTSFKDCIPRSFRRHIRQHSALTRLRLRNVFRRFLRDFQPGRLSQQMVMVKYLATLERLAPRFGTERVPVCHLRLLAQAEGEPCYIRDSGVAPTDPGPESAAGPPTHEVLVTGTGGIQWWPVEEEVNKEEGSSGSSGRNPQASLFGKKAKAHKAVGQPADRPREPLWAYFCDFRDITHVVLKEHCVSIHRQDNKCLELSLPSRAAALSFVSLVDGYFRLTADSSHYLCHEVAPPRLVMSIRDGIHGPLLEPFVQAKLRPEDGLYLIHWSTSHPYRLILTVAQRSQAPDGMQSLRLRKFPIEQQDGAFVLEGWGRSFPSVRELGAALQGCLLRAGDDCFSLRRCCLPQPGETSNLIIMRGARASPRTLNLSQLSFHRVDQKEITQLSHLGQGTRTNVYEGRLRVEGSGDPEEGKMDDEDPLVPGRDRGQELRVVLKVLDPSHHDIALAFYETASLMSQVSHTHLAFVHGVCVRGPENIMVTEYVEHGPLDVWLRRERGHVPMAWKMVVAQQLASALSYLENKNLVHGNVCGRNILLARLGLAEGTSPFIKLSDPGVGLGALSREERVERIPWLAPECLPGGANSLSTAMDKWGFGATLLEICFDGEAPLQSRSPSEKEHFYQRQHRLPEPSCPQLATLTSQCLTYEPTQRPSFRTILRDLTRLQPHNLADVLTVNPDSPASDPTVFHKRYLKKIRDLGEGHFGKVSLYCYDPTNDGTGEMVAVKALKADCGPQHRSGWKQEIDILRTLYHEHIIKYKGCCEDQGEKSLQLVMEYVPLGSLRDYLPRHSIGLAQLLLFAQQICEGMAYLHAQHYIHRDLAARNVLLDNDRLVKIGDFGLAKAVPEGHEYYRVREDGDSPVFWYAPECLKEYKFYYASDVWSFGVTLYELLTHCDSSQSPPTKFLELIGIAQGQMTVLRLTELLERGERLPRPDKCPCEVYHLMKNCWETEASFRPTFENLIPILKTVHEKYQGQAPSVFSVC

Sequence of JAK1 (P23458 whole entry): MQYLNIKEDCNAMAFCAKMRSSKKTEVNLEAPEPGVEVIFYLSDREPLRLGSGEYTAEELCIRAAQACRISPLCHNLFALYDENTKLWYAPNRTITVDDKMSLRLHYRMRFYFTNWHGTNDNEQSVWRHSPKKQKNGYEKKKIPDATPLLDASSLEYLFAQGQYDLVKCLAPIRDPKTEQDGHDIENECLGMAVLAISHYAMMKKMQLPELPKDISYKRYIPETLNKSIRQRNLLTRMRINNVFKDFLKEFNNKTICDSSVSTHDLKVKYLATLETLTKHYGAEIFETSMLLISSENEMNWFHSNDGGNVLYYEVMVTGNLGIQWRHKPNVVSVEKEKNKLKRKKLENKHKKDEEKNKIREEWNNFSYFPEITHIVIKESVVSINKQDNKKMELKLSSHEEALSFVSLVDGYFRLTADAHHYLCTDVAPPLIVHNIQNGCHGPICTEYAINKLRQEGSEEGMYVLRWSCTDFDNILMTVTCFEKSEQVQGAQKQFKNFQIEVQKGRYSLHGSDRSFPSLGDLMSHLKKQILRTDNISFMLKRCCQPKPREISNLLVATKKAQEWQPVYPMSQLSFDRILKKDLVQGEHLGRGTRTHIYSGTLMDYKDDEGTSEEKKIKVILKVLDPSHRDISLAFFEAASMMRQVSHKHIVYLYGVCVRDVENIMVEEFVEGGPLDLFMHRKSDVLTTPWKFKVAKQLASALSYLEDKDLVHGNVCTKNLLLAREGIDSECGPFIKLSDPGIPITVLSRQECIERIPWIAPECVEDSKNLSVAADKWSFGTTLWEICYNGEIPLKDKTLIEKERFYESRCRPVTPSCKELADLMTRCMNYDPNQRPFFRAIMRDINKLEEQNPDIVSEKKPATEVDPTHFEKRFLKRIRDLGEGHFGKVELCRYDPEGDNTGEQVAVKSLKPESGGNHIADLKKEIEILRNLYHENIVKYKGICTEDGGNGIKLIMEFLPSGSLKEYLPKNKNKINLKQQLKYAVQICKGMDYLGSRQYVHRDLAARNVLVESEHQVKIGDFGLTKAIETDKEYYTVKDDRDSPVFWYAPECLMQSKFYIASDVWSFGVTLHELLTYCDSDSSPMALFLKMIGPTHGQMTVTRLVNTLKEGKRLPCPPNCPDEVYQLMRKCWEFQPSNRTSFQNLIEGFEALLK

Row | SMILES | IC50 [1] [nM] | IC50 [2] [nM] | IC50 [3] [nM] | IC50 [4] [nM]
1 | Cc1cnc(Nc2cnc(N3CCOCC3)nc2)nc1-c1cnn(CC2(CF)CC2)c1 [CC1═C(N═C(NC2═CN═C] | < 1000 | < 100 | < 10 | < 1000
2 | N#CCC1(Cn2cc(-c3ccnc(Nc4cc(CO)ns4)n3)cn2)CC1 [OCC1═NSC(═C1)NC2═NC(═CC═N2)C3═C[N]] | < 100 | < 100 | < 10 | < 10
3 | Cc1cnc(Nc2ccccn2)nc1-c1cnn(CC2(Cl)CC2)c1 [CC1═C(N═C(NC2═CC═CC═N2)N═C1)C3═C[N]] | < 100000 | < 100000 | < 1000 | < 100000
4 | Cc1cc(Nc2nc3c(c(-c4cnn(CC5(C#N)COC5)c4)n2)CN(C(=O)OC(C)(C)C)C3)sn1 [CC1═NSC(═C1)NC2═NC(═C3CN] | > 50000 | > 50000 | > 50000 | > 50000
5 | N#CCCn1cc(-c2nc(Nc3cc(C(F)(F)F)no3)ncc2Cl)cn1 [FC(F)(F)C1═NOC(═C1)NC2═NC(═C] | > 50000 | > 50000 | < 1000 | > 50000
6 | Cc1cnc(NC(=O)Oc2ccc(Cl)cc2)nc1-c1cnn(CC2(CF)CC2)c1 [CC1═C(N═C(NC(═O)OC2═CC═C] | < 100000 | < 100000 | < 1000 | < 100000
7 | Cc1cnc(Nc2ccc(N3CC(N(C)C)C3)cc2)nc1-c1cnn(CC2(CF)CC2)c1 [CN(C)C1CN(C1)C2═CC═C(NC3═NC] | < 100 | < 10 | < 10 | < 100
8 | Cc1cnc(Nc2ccc(CNC(=O)[C@H](C)N)cc2)nc1-c1cnn(CC2(CF)CC2)c1 [C[C@H](N)C(═O)NCC1═CC═C(NC2═NC] | < 100 | < 100 | < 10 | < 100
9 | COC1(c2ccc(Nc3ncc(C)c(-c4cnn(CC5(CF)CC5)c4)n3)cc2)COC1 [COC1(COC1)C2═CC═C(NC3═NC(═C] | 1880 | < 1000 | < 100 | < 1000
10 | N#CCC1(Cn2cc(-c3nc(Nc4ccns4)ncc3C3CC3)cn2)CC1 [N#CCC1(CC1)C[N]2C═C(C═N2)C3═C] | < 100 | < 100 | < 10 | < 100
11 | Cc1cnc(Nc2ccc(CNC(=O)OC(C)(C)C)cc2)nc1-c1cnn(CC2(CF)CC2)c1 [CC1═C(N═C(NC2═CC═C(CNC(═O)OC] | < 100 | < 100 | < 10 | < 100
12 | Cc1cnc(Nc2cc(CN(C)C)ns2)nc1-c1cnn(CC2(CF)CC2)c1 [CN(C)CC1═NSC(═C1)NC2═NC(═C] | < 100 | < 100 | < 10 | < 10
13 | Cc1cnc(Nc2ccc(CNC(=O)[C@H](C)NC(=O)OC(C)(C)C)cc2)nc1-c1cnn(CC2(CF)CC2)c1 [C[C@H](NC(═O)OC(C)(C)C)C] | < 100 | < 100 | < 10 | < 100
14 | Cc1cnc(Nc2ccc(CNC(=O)CCN(C)C)cc2)nc1-c1cnn(CC2(CF)CC2)c1 [CN(C)CCC(═O)NCC1═CC═C(NC2═NC(═C] | < 100 | < 100 | < 10 | < 100
15 | N#CC1(Cn2cc(-c3nc(Nc4ccc(C(=O)O)nc4)ncc3Cl)cn2)CC1 [OC(═O)C1═NC═C(NC2═NC(═C] | < 100 | < 1000 | < 10 | < 100
16 | NCc1cccc(Nc2ncc(Cl)c(-c3cnn(CC4(CF)CC4)c3)n2)c1 [NCC1═CC═CC(═C1)NC2═NC(═C] | < 100 | < 10 | < 10 | < 100
17 | Cc1cc(Nc2ncc(Cl)c(-c3cnn(CC4(N(C)C(=O)OC(C)(C)C)CC4)c3)n2)sn1 [CN(C(═O)OC(C)(C)C)C1(CC1)C[N]2C═C] | < 1000 | < 100 | < 100 | < 1000
18 | N#CCCn1cc(-c2nc(Nc3ccc(CCO)cc3)ncc2Cl)cn1 [OCCC1═CC═C(NC2═NC(═C] | < 100 | < 100 | < 10 | < 10

Row | SMILES | IC50 [1] [nM] | IC50 [2] [nM] | IC50 [3] [nM] | IC50 [4] [nM]
19 | CC(C)(C)OC(=O)N1CC(CO)(Cn2cc(-c3nc(Nc4ccc(C(N)=O)cc4)ncc3Cl)cn2)C1 [CC(C)(C)OC(═O)N1CC(CO)(C1)C[N]2C═C] | < 1000 | < 100 | < 100 | < 1000
20 | N#CCCn1cc(-c2nc(Nc3ccc(CCOP(=O)(O)O)cc3)ncc2Cl)cn1 [O[P](O)(═O)OCCC1═CC═C(NC2═NC(═C] | < 100 | < 100 | < 10 | < 10
21 | Cc1cnc(NCCO)nc1-c1cnn(CCC#N)c1 [CC1═C(N═C(NCCO)N═C1)C2═C[N]] | < 100000 | < 100000 | < 100000 | < 100000
22 | Cc1cnc(Nc2cc(CN3CCN(C)CC3)ns2)nc1-c1cnn(CC2(CF)CC2)c1 [CN1CCN(CC1)CC2═NSC(═C2)NC3═NC] | < 1000 | < 100 | < 10 | < 100
23 | Cc1cnc(Nc2ccc(N3CCN(C)CC3)cc2)nc1-c1cnn(CC2(F)CC2)c1 [CN1CCN(CC1)C2═CC═C(NC3═NC(═C(C] | < 100 | < 10 | < 10 | < 10
24 | Cc1cnc(Nc2cc(C(=O)O)ns2)nc1-c1cnn(CC2(CF)CC2)c1 [CC1═C(N═C(NC2═CC(═NS2)C] | < 100 | < 100 | < 10 | < 100
25 | COC(=O)c1ccc(Nc2ncc(Cl)c(-c3cnn(CC4(C#N)CC4)c3)n2)cn1 [COC(═O)C1═NC═C(NC2═NC(═C] | < 1000 | < 100 | < 10 | < 100
26 | Cc1cnc(Nc2ccc(C(=O)NCCN(C)C)cc2)nc1-c1cnn(CC2(CF)CC2)c1 [CN(C)CCNC(═O)C1═CC═C(NC2═NC] | < 100 | < 100 | < 10 | < 10
27 | Cc1cnc(Nc2ccc(N3CCN(C)CC3)cc2)nc1-c1cnn(CC2(C#N)CC2)c1 [CN1CCN(CC1)C2═CC═C(NC3═NC(═C(C([2H])] | < 100 | < 10 | < 10 | < 10
28 | OCC(O)c1cccc(Nc2ncc(Cl)c(-c3cnn(CC4(CF)CC4)c3)n2)c1 (stereo not drawn) [OCC(O)C1═CC═CC(═C1)NC2═NC(═C] | < 10 | < 10 | < 10 | < 10
29 | CCS(=O)(=O)N1CC(CF)(Cn2cc(-c3nc(Nc4cc(C)ns4)ncc3Cl)cn2)C1 [CC[S](═O)(═O)N1CC(CF)(C[N]2C═C] | < 100 | < 100 | < 10 | < 100
30 | Cc1cnc(Nc2cccc(C(=O)N(C)C)c2)nc1-c1cnn(CC2(CF)CC2)c1 [CN(C)C(═O)C1═CC(═CC═C1)NC2═NC] | < 100 | < 100 | < 10 | < 100
31 | C=CCNc1ncc(C)c(-c2cnn(CCC#N)c2)n1 [CC1═C(N═C(NCC═C)N═C1)C2═C[N]] | < 100000 | < 100000 | < 100000 | < 100000
32 | Cn1cc(Nc2ncc(Cl)c(-c3cnn(CCC4CC4)c3)n2)cn1 [C[N]1C═C(NC2═NC(═C] | < 100 | < 10 | < 10 | < 100
33 | Cc1cnc(Nc2cccc(CN3CCN(C)CC3)c2)nc1-c1cnn(CC2(CF)CC2)c1 [CN1CCN(CC1)CC2═CC═CC(═C2)NC3═NC(═C] | < 1000 | < 100 | < 10 | < 1000
34 | CS(=O)(=O)N(c1ncc(Cl)c(-c2cnn(CCC#N)c2)n1)S(C)(=O)=O [C[S](═O)(═O)NC1═NC(═C] | < 100000 | < 100000 | < 100000 | < 100000
35 | Cc1ccc(Nc2ncc(C)c(-c3cnn(CC4(Cl)CC4)c3)n2)cc1S(C)(=O)=O [CC1═CC═C(NC2═NC(═C(C)C═N2)C3═C[N]] | < 100 | < 100 | < 100 | < 100
36 | Cc1cncc(Nc2ncc(C)c(-c3cnn(CC4(CF)CCC4)c3)n2)c1 [CC1═CN═CC(═C1)NC2═NC(═C] | < 100 | < 100 | < 10 | < 100
